The nature of series [1]: Biodegradation in seawater, OECD TG 306 28 day method. The settings on record: OECD TG 306, 28 days. The protocol: Environmental experiments were performed to test biodegradation and toxicity. The biodegradation tests used the standard OECD Guideline for Testing of Chemicals TG 306 (Biodegradability in Seawater) 28 day method (version adopted 17 Jul. 1992) for testing biodegradation of chemicals in seawater.

The next series relates to Skeletonema costatum. The series can be described thus: Toxicity against Skeletonema costatum. It is filed as cell-based. The settings on record: over 72 hours. The protocol:
The toxicity of a quaternary ammonium compound or an LDHI composition comprising the quaternary ammonium compound may be evaluated by testing against Skeletonema costatum and determining EC50 values in the aquatic environment. Also the percentage biodegradation may be measured after 28 days in seawater.
Toxicity was tested against Skeletonema costatum and EC50 values determined (over 72 hours).

In general, EC50 refers to the midpoint of the concentration-response curve. High values mean a less potent agent, low ones a more potent agent.

As to `CCCCCCCCCCCCCC[P+](CCCC)(CCCC)CCCC.[Cl-]` [TTPC, tributyl tetradecylphosphonium chloride], in series [1], the “Biodegradation after 28 days” value was 11%. Besides, in the series on Skeletonema costatum, the EC50 is 0.016 µg/mL.
